From patent US20210395721A1, “METHODS TO IMPROVE POTENCY OF ELECTROPORATION” (Codiak BioSciences, Inc., priority 2018, published 2021) come the findings set out here.

Data set [1] can be described thus: Anion exchange chromatography (AEX) of siRNA before and after electroporation. Format: physicochemical. As to conditions: for effect of excipient on AEX profile of XD-08318 after electroporation: 5 ms per pulse. As for the experimental part:
Anion exchange chromatography (AEX) was carried out on an Agilent 1100 HPLC using a […] PA200 column (Thermo Scientific). The column was equilibrated in 50 mM Tris pH 7.4, and 20 ng of each siRNA sample was prepared in a 100 μl HPLC vial for injection. The sample was injected and subjected to a gradient of 50 mM Tris pH 7.4 (mobile phase A) and 50 mM Tris, 1 M NaCl, pH 7.4 (mobile phase B) according to Tables 1 and 2, below. Electroporation is a common method for introducing nucleic acids into cells and other lipid structures such as exosomes. As an analytical method, siRNAs were analyzed by anion exchange chromatography (AEX), as described above, before and after electroporation. […] XD-08318 is a modified siRNA that contains a 5' terminal deoxyribose residue on the antisense strand, a combination of natural ribose and synthetic 2'-O-methyl ribose residues, and phosphorothioate linkages at the 3' ends of each strand (FIG. 2). Synthetic RNA XD-08318 was electroporated in the presence of several free radical scavengers and reducing agents as excipients.

Data set [2] deals with KRAS G12D transcript. Kind of data set: KRAS G12D transcript knockdown in Panc-1 cells. As to conditions: FIG. 14, samples #9, #10 vs #4-8. It is filed as cell-based, human. The procedure:
XD-08318 was loaded into exosomes by electroporation in the presence or absence of free radical scavengers. As a control, XD-08318 was transfected into the human pancreatic cancer cell line Panc-1, which is heterozygous for the G12D mutant transcript of KRAS. […] As controls, in the absence of any transfection reagent, Panc-1 cells were incubated with a mixture of the siRNA and exosomes without electroporation (mix), siRNA only, exosomes alone (EV only), or in the presence of siRNA and exosomes that were electroporated individually (si EP+EV EP Mix). […] Next, XD-08318 was loaded into exosomes by electroporation at pulse code 42 (sample 4) and incubated with cells, resulting in a modest ˜30% repression of the target transcript.

Setting [3] is: MaxCyte strong pulse code 66 (high field strength, high frequency).

Take `N[C@@H](CCC(=O)N[C@@H](CS)C(=O)NCC(=O)O)C(=O)O` [Glutathione]: the “effect of excipient on AEX profile of XD-08318 after electroporation” value is given as “prevent a change in the AEX profile” in data set [1] (Gene Pulser XCell (Bio-Rad), 800 V, 2 pulses) and “prevent a change in the AEX profile” in data set [1] (Neon Transfection System, 2000 V, 8 pulses). Further, the “effect of excipient on AEX spectral shift of XD-08318 after electroporation” value in data set [1] (setting [3]) is listed as “prevented the spectral shift”.
For the compound `N[C@@H](CS)C(=O)O` [L-cysteine], the “effect of excipient on AEX spectral shift of XD-08318 after electroporation” value is listed as “prevented the spectral shift” in data set [1] (MaxCyte intermediate pulse code 63 (high field strength, low frequency)) and “prevented the spectral shift” in data set [1] (setting [3]).
For `CSCC[C@H](N)C(=O)O` [L-Methionine], the “effect of excipient on AEX spectral shift of XD-08318 after electroporation” value in data set [1] (setting [3]) is reported as “prevented the spectral shift”. Further, the “knock-down by modified siRNA electroporated into exosomes in presence of the scavenger, compared to absence of free radical scavengers” value in data set [2] is on record as “increased knock-down”.
